Data on three molecules can be found in US9393271B2, “GHRH agonists for islet cell transplantation and function and the treatment of diabetes” (UNIVERSITY OF MIAMI, priority 2012, dated 2016).

Test [1] addresses T1, GHRH receptor (human pituitary membrane homogenates) (Homo sapiens, UniProt Q02643).
T1 sequence (Q02643 23-423): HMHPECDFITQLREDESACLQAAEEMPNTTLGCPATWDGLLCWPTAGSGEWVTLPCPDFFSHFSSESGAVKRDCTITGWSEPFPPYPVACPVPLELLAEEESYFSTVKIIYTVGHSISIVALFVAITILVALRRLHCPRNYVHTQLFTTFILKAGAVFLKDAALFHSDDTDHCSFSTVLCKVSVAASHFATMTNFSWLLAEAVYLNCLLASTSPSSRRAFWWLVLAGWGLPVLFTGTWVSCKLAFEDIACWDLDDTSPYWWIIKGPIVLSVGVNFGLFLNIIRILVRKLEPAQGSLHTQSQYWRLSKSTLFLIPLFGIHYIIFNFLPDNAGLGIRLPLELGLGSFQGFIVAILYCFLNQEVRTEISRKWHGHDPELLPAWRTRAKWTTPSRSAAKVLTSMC
Nature of the test: GHRH receptor binding, ligand competition with 125I-labeled JV-1-42 (Table 7). Further details: Normal human pituitaries were purchased from the National Hormone and Peptide Program; tissue National Hormone and Peptide Program (A. F. Parlow, Harbor-UCLA Medical Center, Torrance, Calif.); host or cells: normal human pituitary, membrane fraction / homogenate. The following applies: JI-38 = 1.

The subject of test [2] is rat pituitary cells. Nature of the test: GH release in superfused rat pituitary cell system. The format is cell-based. As to conditions: 1 nM, 3-min pulse; for GH Response (ng/ml) Average: average of runs; for GH Response (ng/ml) 1: run 1; for GH Response (ng/ml) 2: run 2. The procedure:
Growth hormone releasing activity. Growth hormone releasing was assayed by using a superfused rat pituitary cell system as described in S. Vigh and A. V. Schally, Peptides 5, Suppl: 241-347, 1984. The new synthetic peptide analog of hGHRH P20356 and JI-38 (as control) were administered for 3 minutes (1 mL perfusate) at 1 nM concentration as shown below. Fractions of 1 ml are collected and the GH content in each was determined by ELISA.
Pituitary cells from 2 male rats were used for each channel of the superfusion system. The cells were exposed to 3-min pulses of the new GHRH agonists or to JI-38 as standard every 30 min. Outflowing samples of each channel (1 ml) were collected every 3 min, and GH levels were determined by ELISA.

The target in test [3] is T1, GHRH receptor (human pituitary membrane homogenates). The experiment in a line: GHRH receptor binding, ligand competition with 125I-labeled [His1,Nle27]hGHRH(1-32)NH2 (Table 6).
The target is the same in test [4]. The experiment in a line: GHRH receptor binding, ligand competition with 125I-labeled JV-1-42 (Table 5).
Excerpt: Normal human pituitaries were purchased from the National Hormone and Peptide Program (A. F. Parlow, Los Angeles, County Harbor-UCLA Medical Center, Torrance, Calif.).
The test system of test [5] is INS-1 cells. The experiment in a line: INS-1 proliferation (BrdU Cell Proliferation Assay). Type of test: cell-based, rat. As to conditions: different concentrations, 24 h, 48 h and 72 h. The procedure: For determination of proliferation activity, BrdU incorporation was performed in INS-1 cells following exposure to P-27403. Proliferation was measured using BrdU Cell Proliferation Assay (Millipore) following the manufacturer's description. The maximal enhancement in proliferation rate of 16% compared to control was found at 10^−8 M concentration of P-27403 (FIG. 1C).
INS-1 cells were grown for 72 h before experimentation. Cells were treated with GHRH agonists MR356, MR367, and MR403 at different concentrations or with 0.1% (vol/vol) DMSO as control for 24 h, 48 h and 72 h. Proliferation was measured using BrdU Cell Proliferation Assay (Millipore) following the manufacturer's description.

The target of test [6] is T2, GHRH receptor in human pituitary membrane homogenates (human, UniProt Q02643).
T2 sequence: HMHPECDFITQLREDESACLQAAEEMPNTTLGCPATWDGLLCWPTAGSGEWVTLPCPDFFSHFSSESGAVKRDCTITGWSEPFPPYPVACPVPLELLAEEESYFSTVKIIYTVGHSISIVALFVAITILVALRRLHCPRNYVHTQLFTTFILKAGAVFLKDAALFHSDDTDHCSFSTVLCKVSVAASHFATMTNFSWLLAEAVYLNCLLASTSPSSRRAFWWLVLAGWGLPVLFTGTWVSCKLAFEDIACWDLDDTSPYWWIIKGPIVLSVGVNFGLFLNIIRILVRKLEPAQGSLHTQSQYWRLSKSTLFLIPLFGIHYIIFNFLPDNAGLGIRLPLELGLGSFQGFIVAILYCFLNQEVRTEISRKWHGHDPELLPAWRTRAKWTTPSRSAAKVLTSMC
The experiment in a line: ligand competition, 125I-JV-1-42 displaced, human pituitary membranes.

Test [7] has as its target T2, GHRH receptor in human pituitary …. Described as above. The source holds these as a separate data set.
Where [8] appears, read: fraction 1 (P-20356) / 21 (JI-38).
Setting [9] is: fraction 2 (P-20356) / 22 (JI-38).
Setting [10] is: fraction 3 (P-20356) / 23 (JI-38).
The mark [11] stands for this setting: fraction 4 (P-20356) / 24 (JI-38).
[12] abbreviates: fraction 5 (P-20356) / 25 (JI-38).

Read-outs that look alike come from different tables or passages of the source. Non-standard residues stand in square brackets, D forms with d. Residues, ends and D or L forms follow the SMILES beside them. *: point of attachment. Desaminotyrosyl = O=C(CCc1ccc(O)cc1)*; NMeY = CN[C@@H](Cc1ccc(O)cc1)C(=O)O; Agmatine = N=C(N)NCCCCN*; Nle = CCCC[C@H](N)C(=O)O; Orn = NCCC[C@H](N)C(=O)O; Abu = CC[C@H](N)C(=O)O

In the case of `CCCC[C@H](NC(=O)[C@@H](NC(=O)[C@H](CC(=O)O)NC(=O)[C@H](CCC(N)=O)NC(=O)[C@H](CC(C)C)NC(=O)[C@H](CC(C)C)NC(=O)[C@H](CCCN)NC(=O)[C@H](CCCNC(=N)N)NC(=O)[C@H](C)NC(=O)[C@H](CO)NC(=O)[C@H](CC(C)C)NC(=O)[C@H](CCC(N)=O)NC(=O)[C@H](CC)NC(=O)[C@H](CC(C)C)NC(=O)[C@@H](NC(=O)[C@H](CCCN)NC(=O)[C@H](CCCNC(=N)N)NC(=O)[C@H](Cc1ccc(O)cc1)NC(=O)[C@H](CO)NC(=O)[C@H](CCC(N)=O)NC(=O)[C@@H](NC(=O)[C@H](Cc1ccccc1)NC(=O)[C@@H](NC(=O)[C@H](C)NC(=O)[C@H](CC(=O)O)NC(=O)[C@H](C)NC(=O)CCc1ccc(O)cc1)[C@@H](C)CC)[C@@H](C)O)C(C)C)[C@@H](C)CC)C(=O)N[C@@H](CC(=O)O)C(=O)NCCCCNC(=N)N` [JI-38, reference compound] (Desaminotyrosyl-ADAIFTQSYR[Orn]VL[Abu]QLSAR[Orn]LLQDI[Nle]D-Agmatine), the “Relative affinitiy (Binding potency) vs JI-38” value in test [1], in test [3] (JI-38 = 1) and in test [4] (JI-38 = 1) was 1 in each case. Further, the “GH Response (ng/ml) Average” value in test [2] (setting [8]) amounted to 49.27 ng/mL; in test [2] (setting [9]) it was 131.71 ng/mL; in test [2] (setting [10]), 194.68 ng/mL; in test [2] (setting [11]), 137.45 ng/mL; in test [2] (setting [12]), 96.70 ng/mL. The “GH Response (ng/ml) 1” value in test [2] (setting [8]) came out at 42.46 ng/mL; in test [2] (setting [9]), 143.58 ng/mL; in test [2] (setting [10]), 222.13 ng/mL; in test [2] (setting [11]), 142.96 ng/mL; in test [2] (setting [12]), 96.34 ng/mL. Further, the “GH Response (ng/ml) 2” value in test [2] (setting [8]) stood at 56.07 ng/mL; in test [2] (setting [9]), 119.83 ng/mL; in test [2] (setting [10]) it was 167.23 ng/mL; in test [2] (setting [11]), 131.93 ng/mL; in test [2] (setting [12]), 97.05 ng/mL. Besides, the “Relative affinitiy (Binding potency) vs GHRH” value in test [3] (GHRH(1-29) = 1) is 3.03; in test [4] (GHRH(1-29) = 1) it was 2.4.

In the case of `CCCC[C@H](NC(=O)[C@@H](NC(=O)[C@H](CC(=O)O)NC(=O)[C@H](CCC(N)=O)NC(=O)[C@H](CC(C)C)NC(=O)[C@H](CC(C)C)NC(=O)[C@H](CCCN)NC(=O)[C@H](CCCNC(=N)N)NC(=O)[C@H](C)NC(=O)[C@H](CO)NC(=O)[C@H](CC(C)C)NC(=O)[C@H](CCC(N)=O)NC(=O)[C@H](CC)NC(=O)[C@H](CC(C)C)NC(=O)[C@@H](NC(=O)[C@H](CCCN)NC(=O)[C@H](CCCNC(=N)N)NC(=O)[C@H](Cc1ccc(O)cc1)NC(=O)[C@H](CO)NC(=O)[C@H](CC(N)=O)NC(=O)[C@@H](NC(=O)[C@H](Cc1ccccc1)NC(=O)[C@@H](NC(=O)[C@H](C)NC(=O)[C@H](CC(=O)O)NC(=O)[C@@H](C)NC(=O)[C@H](Cc1ccc(O)cc1)NC)[C@@H](C)CC)[C@@H](C)O)C(C)C)[C@@H](C)CC)C(=O)N[C@@H](CC(=O)O)C(=O)NCCCCNC(=N)N` [Peptide P-20367, [N—Me-Tyr^1, D-Ala^2, Orn^12, Abu^15, Orn^21, Nle^27, Asp^28, Agm^29]hGHRH(1-29)] (H-[NMeY][dA]DAIFTNSYR[Orn]VL[Abu]QLSAR[Orn]LLQDI[Nle]D-Agmatine), the “Relative affinitiy (Binding potency) vs JI-38” value in test [1] is on record as 2.56. Further, the “Cell proliferation compared to control” value in test [5] was “significantly induced cell proliferation”.

B1: [Dat1, D-Ala2, Gln8, Orn12, Abu15, Orn21, Nle27, Asp28, Agm29]hGHRH(1-29) (peptide)
peptide: [Desaminotyrosyl][dA]DAIFTQSYR[Orn]VL[Abu]QLSAR[Orn]LLQDI[Nle]D[Agmatine]
SMILES: CCCC[C@H](NC(=O)[C@@H](NC(=O)[C@H](CC(=O)O)NC(=O)[C@H](CCC(N)=O)NC(=O)[C@H](CC(C)C)NC(=O)[C@H](CC(C)C)NC(=O)[C@H](CCCN)NC(=O)[C@H](CCCNC(=N)N)NC(=O)[C@H](C)NC(=O)[C@H](CO)NC(=O)[C@H](CC(C)C)NC(=O)[C@H](CCC(N)=O)NC(=O)[C@H](CC)NC(=O)[C@H](CC(C)C)NC(=O)[C@@H](NC(=O)[C@H](CCCN)NC(=O)[C@H](CCCNC(=N)N)NC(=O)[C@H](Cc1ccc(O)cc1)NC(=O)[C@H](CO)NC(=O)[C@H](CCC(N)=O)NC(=O)[C@@H](NC(=O)[C@H](Cc1ccccc1)NC(=O)[C@@H](NC(=O)[C@H](C)NC(=O)[C@H](CC(=O)O)NC(=O)[C@@H](C)NC(=O)CCc1ccc(O)cc1)[C@@H](C)CC)[C@@H](C)O)C(C)C)[C@@H](C)CC)C(=O)N[C@@H](CC(=O)O)C(=O)NCCCCNC(=N)N
As to B1, in test [6], the IC50 (as a rule, the concentration at which inhibition is half-maximal) was determined as 0.04 nM; the “relative affinity (binding potency) vs GHRH” value is 102 GHRH(1-29) = 1; the “relative affinity (binding potency) vs JI-38” value was 42.7 JI-38 = 1. In test [7], the IC50 was 0.52 nM and the “relative affinity (binding potency) vs JI-38” value is 8.37 JI-38 = 1.
